{"source": "patent US8103455B2", "about": "“Method of assessing the proliferation or differentiation behaviour of a population of target cells in a biological system” (Medical Research Council, priority 2006, dated 2012)", "assay_type_in_all_cases": "in vivo, mouse", "key": {"[1]": {"test_system": "epidermal progenitor cells (EPC) of tail epidermis", "assay": "Clone size distribution of EYFP-labelled epidermal progenitor cell clones after topical retinoid treatment, fitted to the model", "method": "All animal experiments were conducted as specified by Home Office Project License. The generation of AhcreERT and R26EYFP/EYFP mice has been described previously^15,16. […] Epidermal wholemounts were prepared as described^14. For analysis of back epidermis, 60 μm cryosections were used.\n(§1) Clone size was determined by Z stack confocal imaging of at least 50 clones containing at least one basal cell in each mouse at each time point. […] The percentage of Ki67 positive cells was determined by imaging at least 1500 basal cells in multiple fields from at least 3 mice.\n(§2) All trans retinoic acid (Sigma) in ethanol, propanediol 70:30 was applied topically to tail skin and shaved back skin (0.5 ml each) 5 days a week for 3 months at 0.33 mM or daily for 2 weeks at 1 mM.\n(§3) Two protocols were used: (1) Mice were induced and after a three month interval treated with either 0.33 mM all trans retinoic acid (ATRA) or vehicle alone for a further 3 months. (2) Mice were treated with 1 mM all trans retinoic acid (ATRA) or vehicle alone for 2 weeks, beginning immediately after induction."}, "basal cells of tail IFE": {"test_system": "basal cells of tail IFE", "assay": "Proliferation rate of basal cells by Ki67 staining", "details": "ATRA treated mice, topical; controls 16.5+/-2.2%", "method": "as §1, §2, §3"}, "[2]": {"test_system": "mitotic spindles of tail IFE", "assay": "Analysis of mitotic spindle orientation in DAPI stained epidermal wholemounts", "details": "ATRA treatment, topical (3 months per figure legend)", "method": "as §2, §3"}}}
{"smiles": "CC1=C(/C=C/C(C)=C/C=C/C(C)=C/C(=O)O)C(C)(C)CCC1", "note": "[ATRA, all trans retinoic acid]", "values": [{"measurement": "AD (asymmetric division) rate from fit of model to two cell clone distribution", "setting": "[1]; at two weeks, both protocols, unchanged from wildtype", "value": 84, "unit": "%"}, {"measurement": "clone size", "setting": "[1]; both protocols: 0.33 mM for 3 months starting 3 months after induction, 1 mM for 2 weeks from induction, versus vehicle", "value": "increase substantially"}, {"measurement": "EPC division rate, factor of increase", "setting": "[1]; fit of model to two cell clone distribution at two weeks, vehicle factor 1.4", "value": 22}, {"measurement": "proliferation rate assessed by Ki67 staining (mean+/-sem)", "setting": "basal cells of tail IFE", "value": "57.0+/−3.7%"}, {"measurement": "orientation of mitotic spindles", "setting": "[2]", "value": "did not alter the orientation of mitotic spindles"}]}
